Measurements taken from EP2236511A2, “LIGANDS OF ALPHA-ADRENOCEPTORS AND OF DOPAMINE, HISTAMINE, IMIDAZOLINE AND SEROTONIN RECEPTORS AND THE USE THEREOF” (priority 2007, dated 2009).

Tests used:
[1] = molecular target: T1, serotonin receptor 5-HT1B (Rattus norvegicus, UniProt P28564); assay: Radioligand binding to serotonin receptor 5-HT1B ([125I] cyanopindolol, rat brain cortex membranes); details: 10 µM ligand
T1 construct: membrane species are prepared from rat brains (Wistar) by homogenization of species of rat brain-cortices; from tissue; host or cells: rat (Wistar) brain cortex
Text: Serotonin is used as positive control.

male mice of BALB/c line = assay: Passive Avoidance of mice in the Shuttle Chamber, memory disturbed by Scopolamine; format: in vivo; details: Scopolamine 0.3 mg/kg, injected 30 minutes before training; figures 1-3
Procedure: Example 14. […] A shuttle chamber (Ugo Basile, Italy) consisted of two sections was used. […] The sections were connected through a hole which could be overlapped by a vertical door. The floor was made of transverse metal bars on which DC current impulses could be fed. Experiments were carried out in aged male mice of BALB/c line weighing 20-24 grams.
Each group consisted of at least 8 animals. Animal was placed in light section, and latent period of the first entry into dark chamber was registered. Then the vertical door was closed and the animal was punished by 0.6 mA DC current for 3 seconds. After that it was taken back to its homecage. In 22-24 hours the same animal was placed again in light section of the shuttle chamber and latent period of its first entry into dark section, the total time of its stay in light section, and the number of entries into dark section, were registered. Each monitoring lasted for 5 minutes.
Testing was carried out during the day time in isolated laboratory using white noise at level of about 70 decibel above human hearing threshold.
Scopolamine causes the disturbance of training (memory loss) that results in […].

[2] = molecular target: T2, recombinant human 5-HT2B receptor (Homo sapiens, UniProt P41595); assay: Radioligand binding to serotonin receptor 5-HT2B ([3H] Lysergic acid diethylamide, CHO-K1 membranes); details: 10 µM ligand
T2 construct: expressed in transfected cells; host or cells: CHO-K1

[3] = molecular target: T3, recombinant human 5-HT2A receptor (Homo sapiens, UniProt P28223); assay: Radioligand binding to serotonin receptor 5-HT2A ([3H] Ketanserin, CHO-K1 membranes); details: 10 µM ligand
T3 construct: expressed in transfected cells; host or cells: CHO-K1
Text: 9-C. […] J Neurochem. […] Ketanserin is used as positive control.

[4] = molecular target: T4, recombinant human 5-HT2C receptor (Homo sapiens, UniProt P28335); assay: Radioligand binding to serotonin receptor 5-HT2C ([3H] Mesulergine, CHO-K1 membranes); details: 10 µM ligand
T4 construct: expressed in transfected cells; host or cells: CHO-K1
T4 sequence (P28335 33-458): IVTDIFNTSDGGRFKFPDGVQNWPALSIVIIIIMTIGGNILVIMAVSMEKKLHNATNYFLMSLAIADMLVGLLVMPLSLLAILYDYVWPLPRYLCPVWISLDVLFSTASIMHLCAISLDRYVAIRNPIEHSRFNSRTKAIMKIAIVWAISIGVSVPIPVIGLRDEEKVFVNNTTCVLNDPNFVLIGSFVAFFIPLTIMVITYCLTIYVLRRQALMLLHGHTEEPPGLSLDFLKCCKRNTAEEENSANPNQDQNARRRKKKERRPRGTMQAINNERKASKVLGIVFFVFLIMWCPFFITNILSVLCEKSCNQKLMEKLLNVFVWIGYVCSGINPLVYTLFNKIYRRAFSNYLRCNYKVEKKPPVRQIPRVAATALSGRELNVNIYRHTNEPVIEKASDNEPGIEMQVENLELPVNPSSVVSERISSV
Text: J Neurochem. 69: 1449 - 1458, 1997]. […] SB242084 is used as positive control.

human H1 receptor = molecular target: T5, human H1 receptor (Homo sapiens, UniProt P35367); assay: Radioligand binding to histamine receptor H1 ([3H] Pyrilamine, CHO-K1 membranes); details: 10 µM ligand; 10 µM
T5 construct: expressed in transfected cells; host or cells: CHO-K1
Text: Biochem Biophys Res Comm. 197(3): 1601-1608, 1993]. […] Biochem Biophys Res Comm. 197(3): 1601-1608, 1993].
Pyrilamine is used as positive control.

human H2 receptor = molecular target: T6, human H2 receptor (Homo sapiens, UniProt P25021); assay: Radioligand binding to histamine receptor H2 ([125I] Aminopotentidine, CHO-K1 membranes); details: 10 µM ligand
T6 construct: expressed in transfected cells; host or cells: CHO-K1
Text: Proc Natl Acad Sci USA. 87(5): 1658-1662, 1990]. […] Proc Natl Acad Sci USA. 87(5): 1658-1662, 1990]. […] Tiotidine is used as positive control.

T6 sequence (P25021 whole entry): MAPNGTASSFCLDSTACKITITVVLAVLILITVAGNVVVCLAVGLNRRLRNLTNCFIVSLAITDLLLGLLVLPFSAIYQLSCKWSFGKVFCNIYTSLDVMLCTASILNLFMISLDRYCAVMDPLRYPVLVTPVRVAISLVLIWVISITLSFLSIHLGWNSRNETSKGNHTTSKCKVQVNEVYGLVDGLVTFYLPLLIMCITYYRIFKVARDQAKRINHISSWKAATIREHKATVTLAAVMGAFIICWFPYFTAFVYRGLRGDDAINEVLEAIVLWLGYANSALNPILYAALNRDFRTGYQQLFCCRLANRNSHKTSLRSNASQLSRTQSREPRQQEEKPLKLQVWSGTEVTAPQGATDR
T3 sequence (P28223 whole entry): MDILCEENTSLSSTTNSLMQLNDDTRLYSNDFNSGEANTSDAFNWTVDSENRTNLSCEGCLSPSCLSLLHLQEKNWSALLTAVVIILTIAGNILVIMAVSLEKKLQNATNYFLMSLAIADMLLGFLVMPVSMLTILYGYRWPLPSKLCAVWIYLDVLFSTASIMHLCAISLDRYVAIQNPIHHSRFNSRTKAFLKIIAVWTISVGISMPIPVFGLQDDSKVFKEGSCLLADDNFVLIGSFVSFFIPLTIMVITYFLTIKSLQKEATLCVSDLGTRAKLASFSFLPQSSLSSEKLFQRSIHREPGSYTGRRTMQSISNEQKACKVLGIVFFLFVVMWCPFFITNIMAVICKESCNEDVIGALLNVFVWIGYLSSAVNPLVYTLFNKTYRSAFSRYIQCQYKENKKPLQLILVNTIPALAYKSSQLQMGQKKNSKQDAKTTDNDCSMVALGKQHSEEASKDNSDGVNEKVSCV
T5 sequence (P35367 whole entry): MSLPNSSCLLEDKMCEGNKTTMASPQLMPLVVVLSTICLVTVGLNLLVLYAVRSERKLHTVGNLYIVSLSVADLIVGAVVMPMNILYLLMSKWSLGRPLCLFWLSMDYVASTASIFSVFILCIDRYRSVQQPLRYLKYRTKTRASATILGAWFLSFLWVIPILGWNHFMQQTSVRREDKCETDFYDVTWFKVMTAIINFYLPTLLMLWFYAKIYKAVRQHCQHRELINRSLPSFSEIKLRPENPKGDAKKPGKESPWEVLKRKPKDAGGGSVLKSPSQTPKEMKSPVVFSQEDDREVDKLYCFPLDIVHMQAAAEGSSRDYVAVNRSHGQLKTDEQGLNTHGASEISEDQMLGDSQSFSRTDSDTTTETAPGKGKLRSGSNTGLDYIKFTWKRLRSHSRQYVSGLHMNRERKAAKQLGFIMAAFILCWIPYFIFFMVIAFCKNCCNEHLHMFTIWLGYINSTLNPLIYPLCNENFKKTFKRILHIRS
T1 sequence (P28564 whole entry): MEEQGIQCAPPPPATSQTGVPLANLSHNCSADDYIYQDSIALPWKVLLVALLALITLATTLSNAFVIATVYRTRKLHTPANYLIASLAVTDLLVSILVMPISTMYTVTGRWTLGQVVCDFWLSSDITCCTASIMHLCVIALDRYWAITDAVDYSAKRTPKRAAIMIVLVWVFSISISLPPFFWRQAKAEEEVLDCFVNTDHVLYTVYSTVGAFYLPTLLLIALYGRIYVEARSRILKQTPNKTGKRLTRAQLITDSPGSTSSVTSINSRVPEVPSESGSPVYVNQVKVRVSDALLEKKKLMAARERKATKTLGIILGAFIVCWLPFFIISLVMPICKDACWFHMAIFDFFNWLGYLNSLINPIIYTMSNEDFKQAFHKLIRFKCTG
T2 sequence (P41595 whole entry): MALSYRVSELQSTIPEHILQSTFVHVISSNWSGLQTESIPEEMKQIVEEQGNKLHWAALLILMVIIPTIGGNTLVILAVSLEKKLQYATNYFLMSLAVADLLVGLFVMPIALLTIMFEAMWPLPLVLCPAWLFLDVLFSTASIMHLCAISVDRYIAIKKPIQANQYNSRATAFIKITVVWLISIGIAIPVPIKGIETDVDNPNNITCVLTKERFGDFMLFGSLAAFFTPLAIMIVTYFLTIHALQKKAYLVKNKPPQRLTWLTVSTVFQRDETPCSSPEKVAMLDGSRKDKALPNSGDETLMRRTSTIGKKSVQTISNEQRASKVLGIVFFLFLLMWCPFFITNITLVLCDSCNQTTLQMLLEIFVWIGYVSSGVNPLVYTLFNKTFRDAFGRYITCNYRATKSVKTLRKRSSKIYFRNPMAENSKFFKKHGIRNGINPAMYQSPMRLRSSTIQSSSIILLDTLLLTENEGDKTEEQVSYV

Cc1ccc2c(c1)c1c(n2/C=C\c2ccccc2)CCN(C)C1 [1.1(6)]
5-HT1B % inhibition [1]: 86%
enhancement of memory disturbed by Scopolamine (male mice of BALB/c line): improve memory
5-HT2B % inhibition [2]: 98%
5-HT2A % inhibition [3]: 100%
5-HT2C % inhibition [4]: 101%

COc1ccc2c(c1)c1c(n2CCc2ccccn2)CCN(C)C1 [1.1.2(2-4)·2HCl]
enhancement of memory disturbed by Scopolamine (male mice of BALB/c line): improve memory

Cc1ccc2c(c1)c1c(n2CCc2ccc(C)nc2)CCN(C)C1 [1.1.2(4-4)·2CH3SO3H, 2,8-dimethyl-5-[2-(4-methylpyridin-3-yl)ethyl]-1,2,3,4-tetrahydro-1H-pyrido[4,3-b]indole bis-methylsulfonate]
Histamine receptors, % inhibition H1 (human H1 receptor): 102%
inhibition at 10 µM (human H2 receptor; read-out: Histamine receptors, % inhibition H2): 99%

Cc1ccc2c(c1)c1c(n2CCc2ccc(C)nc2)CCN(C)C1 [1.1.2(4-5)·1/2NDSA, 2,8-dimethyl-5-[2-(4-methylpyridin-3-yl)ethyl]-1,2,3,4-tetrahydro-1H-pyrido[4,3-b]indole naphtalene-1,5-disulfonate]
Histamine receptors, % inhibition H2 (human H2 receptor; 10 µM): 100%
